In patent US10414760B2, “Cytochrome P450 inhibitors and uses thereof” (ANGION BIOMEDICA CORP., priority 2016, dated 2019):

Assays:
Type in all cases: biochemical
[1] = target: T1, CYP17 (Rattus norvegicus, UniProt P11715); assay: CYP17 inhibition: 17α hydroxylase and C17,20 lyase activity in testis microsomes, ELISA detection; settings: for IC50: which microsome assay (rat or dog testis) not specified
T1 construct: using rat and dog testis microsomes and ELISA kits from commercial vendors; from tissue; host or cells: rat testis microsomes
T1 sequence (P11715 1-507): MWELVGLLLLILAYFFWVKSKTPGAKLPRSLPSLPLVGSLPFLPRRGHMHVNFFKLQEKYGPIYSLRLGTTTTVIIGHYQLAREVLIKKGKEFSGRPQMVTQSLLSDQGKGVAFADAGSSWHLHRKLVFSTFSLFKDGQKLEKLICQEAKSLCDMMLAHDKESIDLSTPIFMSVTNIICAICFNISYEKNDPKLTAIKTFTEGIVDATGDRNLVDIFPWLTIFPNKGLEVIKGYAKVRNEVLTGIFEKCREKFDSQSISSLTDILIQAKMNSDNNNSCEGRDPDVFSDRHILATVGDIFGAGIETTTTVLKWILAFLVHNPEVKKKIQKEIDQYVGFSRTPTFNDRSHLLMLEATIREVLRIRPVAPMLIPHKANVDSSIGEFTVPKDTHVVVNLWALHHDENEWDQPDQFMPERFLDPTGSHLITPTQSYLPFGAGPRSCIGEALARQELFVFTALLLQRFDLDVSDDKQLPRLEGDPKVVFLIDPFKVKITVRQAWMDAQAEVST
Description: Serum Testosterone and PSA and Tumor Testosterone Analysis. Tumor tissue obtained from mice will be homogenized in phosphate buffer (pH 7.4, 0.1 M) and homogenates centrifuged at 2000 g for 20 min. Testosterone concentrations in the serum and in the clear tissue homogenate supernatant will be determined with the ELISA kit from R&D Systems (Catalog # KGR010). Serum PSA concentrations will be measured using a PSA ELISA kit with a serum dilution according to the manufacturers instructions. • c. Breast cancer. To test the efficacy of compounds embodied herein against breast cancer, nude mice carrying human breast cancer lines that are estrogen receptor and Aromatase positive will be used. Cells will be grown in vitro and 2 million will be inoculated in Matrigel (50:50 volume ratio of cells to Matrigel). Cells will be distributed by s.c. injection at the right and left flanks or at the orthotopic sitest in 6 to 8 week old athymic nude mice (BALB/c strain) or severe combined immunodeficient mice under anesthesia. Animals will be treated with compound for 4 weeks, at which point animals will be sacrificed and collect blood samples and tumor tissue for the determination of serum and tumor estrogen levels. Tumors will be excised and a portion will be fixed in formalin for subsequent histochemical and immuno-histochemical analysis. The remainder will be snap frozen in liquid nitrogen and stored at −80° C. • 12. CYP26 inhibition activity. […] The assay is run in a 100 μL reaction volume and stopped with an equal volume of methanol. […] CYP17 inhibition assay: In vitro assays for CYP17 17α-hydroxylase and C17,20-lyase activity, assays using rat and dog testis microsomes and ELISA kits from commercial vendors for the detection of formed products are employed. […] Assays are also used that determine the activity of 17α-hydroxylase activity using P4 as a substrate and detecting HOP4 as a product (using dog testis microsomes) and the activity of C17,20-lyase by using HOP4 as a substrate and AD as a product (rat testis microsomes). • 14.
CYP17 inhibition. In vitro assays for CYP17 17α hydroxylase and C17,20 lyase activity using rat and dog testis microsomes and ELISA kits from commercial vendors for the detection of formed products were employed. […] Assays were also used that determine the activity of 17α hydroxylase activity using P4 as a substrate and detecting HOP4 as a product (using dog testis microsomes) and the activity of C17,20 lyase by using HOP4 as a substrate and AD as a product (rat testis microsomes).

[2] = target: T2, CYP19 (Homo sapiens, UniProt P11511); assay: CYP19 inhibition: commercially available recombinant enzyme and assay kit
T2 construct: purchased BD Gentest 456260
T2 sequence (P11511 1-503): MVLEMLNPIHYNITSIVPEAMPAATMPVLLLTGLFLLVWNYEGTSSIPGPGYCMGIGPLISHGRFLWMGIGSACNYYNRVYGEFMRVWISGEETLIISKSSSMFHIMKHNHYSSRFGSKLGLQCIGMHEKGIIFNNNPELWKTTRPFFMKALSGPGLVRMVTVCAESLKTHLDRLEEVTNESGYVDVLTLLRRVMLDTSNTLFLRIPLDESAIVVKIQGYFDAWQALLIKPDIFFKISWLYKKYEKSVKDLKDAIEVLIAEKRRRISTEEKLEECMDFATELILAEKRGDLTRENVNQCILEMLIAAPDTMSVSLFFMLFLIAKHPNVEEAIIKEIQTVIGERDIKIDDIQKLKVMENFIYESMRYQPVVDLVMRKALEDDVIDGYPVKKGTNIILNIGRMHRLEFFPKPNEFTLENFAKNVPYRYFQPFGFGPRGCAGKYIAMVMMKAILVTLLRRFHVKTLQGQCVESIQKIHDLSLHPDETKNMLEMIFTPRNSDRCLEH
Description: (§1) Serum Testosterone and PSA and Tumor Testosterone Analysis. Tumor tissue obtained from mice will be homogenized in phosphate buffer (pH 7.4, 0.1 M) and homogenates centrifuged at 2000 g for 20 min. Testosterone concentrations in the serum and in the clear tissue homogenate supernatant will be determined with the ELISA kit from R&D Systems (Catalog # KGR010). Serum PSA concentrations will be measured using a PSA ELISA kit with a serum dilution according to the manufacturers instructions. • c. Breast cancer. To test the efficacy of compounds embodied herein against breast cancer, nude mice carrying human breast cancer lines that are estrogen receptor and Aromatase positive will be used. Cells will be grown in vitro and 2 million will be inoculated in Matrigel (50:50 volume ratio of cells to Matrigel). Cells will be distributed by s.c. injection at the right and left flanks or at the orthotopic sitest in 6 to 8 week old athymic nude mice (BALB/c strain) or severe combined immunodeficient mice under anesthesia. Animals will be treated with compound for 4 weeks, at which point animals will be sacrificed and collect blood samples and tumor tissue for the determination of serum and tumor estrogen levels. Tumors will be excised and a portion will be fixed in formalin for subsequent histochemical and immuno-histochemical analysis. The remainder will be snap frozen in liquid nitrogen and stored at −80° C. • 12. CYP26 inhibition activity. A substrate depletion assay for ATRA metabolism in mouse microsomes is used. […] The assay is run in a 100 μL reaction volume and stopped with an equal volume of methanol. […] CYP17 inhibition assay: In vitro assays for CYP17 17α-hydroxylase and C17,20-lyase activity, assays using rat and dog testis microsomes and ELISA kits from commercial vendors for the detection of formed products are employed. Incubation of rat testis microsomes with the substrate progesterone (P4) results, through the CYP17 17α-hydroxylase and C17,20-lyase activities, in a marked production of androstenedione (AD) in a time and enzyme-concentration dependent manner. […] In another control, microsomes isolated from rat livers, which are known to express very little or no CYP17, are shown to be devoid of this activity. Assays are also used that determine the activity of 17α-hydroxylase activity using P4 as a substrate and detecting HOP4 as a product (using dog testis microsomes) and the activity of C17,20-lyase by using HOP4 as a substrate and AD as a product (rat testis microsomes). • 14. CYP19 inhibition assay: For in vitro assays of CYP19 aromatase activity, commercially available CYP19 enzyme preparations (e.g. BD Gentest Supersomes Catalog #456260) and assay kits (e.g. BD Gentest Catalog #459520) are employed according to the manufacturers instructions.
Selectivity for other P450 enzymes. To assess the selectivity of compounds embodied herein, activity was evaluated first against CYP3A4 and CYP19 using commercially available recombinant enzymes and assay kits. To calculate a selectivity factor, the IC50 for a particular P450 enzyme was divided by the IC50 in the CYP17 combination assay.

[3] = target: T3, CYP26 (Mus musculus, UniProt O55127); assay: CYP26 inhibition: substrate depletion assay for ATRA metabolism in mouse microsomes
T3 construct: tissue Xenotech; host or cells: liver microsomes of ATRA-treated mice
T3 sequence (O55127 1-497): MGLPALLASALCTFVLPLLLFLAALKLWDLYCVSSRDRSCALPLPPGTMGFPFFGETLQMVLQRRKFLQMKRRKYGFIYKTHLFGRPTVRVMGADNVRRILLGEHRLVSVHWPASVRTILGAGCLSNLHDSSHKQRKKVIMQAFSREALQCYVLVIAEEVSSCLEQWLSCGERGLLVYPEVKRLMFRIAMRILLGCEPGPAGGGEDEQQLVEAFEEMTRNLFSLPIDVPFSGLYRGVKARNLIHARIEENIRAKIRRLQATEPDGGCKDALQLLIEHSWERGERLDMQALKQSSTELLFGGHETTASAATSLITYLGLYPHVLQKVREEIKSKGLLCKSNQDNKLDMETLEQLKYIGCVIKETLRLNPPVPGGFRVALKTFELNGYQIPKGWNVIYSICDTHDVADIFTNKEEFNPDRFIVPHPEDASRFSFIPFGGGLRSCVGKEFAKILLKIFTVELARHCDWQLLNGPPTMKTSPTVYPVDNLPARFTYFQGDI
Description: as §1
CYP26 inhibition. […] The assay was run in a 100 μL reaction volume and stopped with an equal volume of methanol. […] Other compounds of formula (I) are similarly potent, for example with an IC50 of 1.6 nM.

| SMILES | IC50 [1] [nM] | IC50 [2] [nM] | IC50 [3] [nM] | Inhibition of androstenedione (AD) production from progesterone (P4) ([1]; rat testis microsomes, 17α hydroxylase and C17,20 lyase activities) |
| --- | --- | --- | --- | --- |
| CCC(CC)C(c1ccc2nc(N)sc2c1)n1ccnc1 (centres unmarked) [Example 27, 6-(2-Ethyl-1-(1H-imidazol-1-yl)butyl)benzo[d]thiazol-2-amine] | < 5000 | < 1000 | – | – |
| CCC(CC)C(c1ccc2nc(Br)sc2c1)n1ccnc1 (centres unmarked) [Example 28, 2-bromo-6-(2-ethyl-1-(1H-imidazol-1-yl)butyl)benzo[d]thiazole] | < 5000 | < 1000 | – | – |
| CCC(C(c1ccc2nc(-c3cc(C(=O)O)cc(C(F)(F)F)c3)sc2c1)n1ccnc1)N(C)C (centres unmarked) [Example 70, 3-(6-(2-(Dimethylamino)-1-(1H-imidazol-1-yl)butyl)benzo[d]thiazol-2-yl)-5-(trifluoromethyl)benzoic acid] | – | – | < 1000 | – |
| CCC(C(c1ccc2nc(-c3cccc(-c4nn[nH]n4)c3)sc2c1)n1ccnc1)N(C)C (centres unmarked) [Example 71, 1-(2-(3-(2H-Tetrazol-5-yl)phenyl)benzo[d]thiazol-6-yl)-1-(1H-imidazol-1-yl)-N,N-dimethylbutan-2-amine] | – | – | < 1000 | – |
| CCC(C(c1ccc2nc(-c3ccc(-c4nn[nH]n4)cc3)sc2c1)n1ccnc1)N(C)C (centres unmarked) [Example 72, 1-(2-(4-(2H-Tetrazol-5-yl)phenyl)benzo[d]thiazol-6-yl)-1-(1H-imidazol-1-yl)-N,N-dimethylbutan-2-amine] | – | – | < 1000 | – |
| CCC(CC)C(c1ccc2nc(-c3ccc(Cl)c(C(=O)OC)c3)sc2c1)n1ccnc1 (centres unmarked) [Example 73, Methyl 2-chloro-5-(6-(2-ethyl-1-(1H-imidazol-1-yl)butyl)benzo[d]thiazol-2-yl)benzoate] | – | – | < 1000 | – |
| CCC(CC)C(c1ccc2nc(-c3ccc(Cl)c(C(=O)O)c3)sc2c1)n1ccnc1 (centres unmarked) [Example 74, 2-Chloro-5-(6-(2-ethyl-1-(1H-imidazol-1-yl)butyl)benzo[d]thiazol-2-yl)benzoic acid] | – | – | < 1000 | – |
| CC(=O)O[C@H]1CC[C@@]2(C)C(=CC[C@@H]3[C@@H]2CC[C@]2(C)C(c4cccnc4)=CC[C@@H]32)C1 [abiraterone acetate, reference compound] | – | – | – | completely inhibited |

More lines, main results first:

| IC50 [1] [nM] | IC50 [2] [nM] | IC50 [3] [nM] | SMILES | Inhibition of androstenedione (AD) production from progesterone (P4) ([1]; rat testis microsomes, 17α hydroxylase and C17,20 lyase activities) |
| --- | --- | --- | --- | --- |
| < 5000 | < 1000 | – | CCC(C(c1ccc2nc(NC(N)=O)sc2c1)n1ccnc1)N(C)C (centres unmarked) [Example 2, 1-(6-(2-(Dimethylamino)-1-(1H-imidazol-1-yl)butyl)benzo[d]thiazol-2-yl)urea] | – |
| < 5000 | < 1000 | – | CCC(C(c1ccc2nc(NC(C)=O)sc2c1)n1ccnc1)N(C)CC (centres unmarked) [Example 9, N-(6-(2-(Ethyl(methyl)amino)-1-(1H-imidazol-1-yl)butyl)benzo[d]thiazol-2-yl)acetamide] | – |
| < 5000 | < 1000 | – | CCC(C(c1ccc2nc(Cl)sc2c1)n1ccnc1)N(C)CC (centres unmarked) [Example 10, 1-(2-Chlorobenzo[d]thiazol-6-yl)-N-ethyl-1-(1H-imidazol-1-yl)-N-methylbutan-2-amine] | – |
| < 5000 | < 1000 | – | CCC(C(c1ccc2nc(C(=O)OC)sc2c1)n1ccnc1)N(C)C (centres unmarked) [Example 12, Methyl 6-(2-(dimethylamino)-1-(1H-imidazol-1-yl)butyl)benzo[d]thiazole-2-carboxylate] | – |
| < 5000 | < 1000 | – | CCC(C(c1ccc2nc(C(=N)OC)sc2c1)n1ccnc1)N(C)C (centres unmarked) [Example 13, Methyl 6-(2-(dimethylamino)-1-(1H-imidazol-1-yl)butyl)benzo[d]thiazole-2-carbimidate] | – |
| < 5000 | < 1000 | – | CCC(C(c1ccc2nc(C(N)=O)sc2c1)n1ccnc1)N(C)C (centres unmarked) [Example 14, 6-(2-(Dimethylamino)-1-(1H-imidazol-1-yl)butyl)benzo[d]thiazole-2-carboxamide] | – |
| < 5000 | < 1000 | – | CCC(C(c1ccc2ncsc2c1)n1ccnc1)N(C)C (centres unmarked) [Example 15, 1-(Benzo[d]thiazol-6-yl)-1-(1H-imidazol-1-yl)-N,N-dimethylbutan-2-amine] | – |
| < 5000 | < 1000 | – | CCC(C(c1ccc2nc(N)sc2c1)n1ccnc1)N(C)CC (centres unmarked) [Example 32, 6-(2-(Ethyl(methyl)amino)-1-(1H-imidazol-1-yl)butyl)benzo[d]thiazol-2-amine] | – |
